In one assay the target is HLA-B*4402 (Homo sapiens, UniProt P01889, A223V/A65T/A93T/A95T/D201E/D98Y/E176V/E187L/E204Q/E69K/G107R/H137Y/K202T/L105A/L119I/N104T/N87E/Q56L/Q94N/R106L/R155S/R180D/S101N/S121R/S35A/S48T/T118I/V36M/W191S/Y140D/Y91S). Put plainly: In vitro class I HLA binding assay (fluorescence polarization competition). The conditions noted are these: allele B*4402; for IC50 / IC50 (nM), in vitro HLA binding affinity: fluorescence polarization competition; for IC50: read-out: IC50 (nM), in vitro HLA binding affinity; for pIC50: read-out: IC50. In outline: (§1)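 Cell-free competition assay: HLA heat-treated 53°C for 15 min to strip endogenous peptides, then mixed with fluorescent high-affinity control peptide and test peptides for 72 h to equilibrium. Displacement read by fluorescence polarization as percent inhibition; IC50 derived from a concentration range.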
For orientation: In fluorescence polarisation assays a small probe gives low polarisation when free and higher when bound to something large.

A further assay addresses HLA-A*0301 (Homo sapiens, UniProt P04439). Put plainly: biochemical. Type of assay: binding. The conditions noted are these: allele A*0301; fluorescence polarization competition; read-out: IC50 (nM), in vitro HLA binding affinity. The gist of the method:
as §1

A further assay addresses T1, HLA-DRB1*1501 (Homo sapiens, UniProt P01903+P01911).
T1 construct: purchased
Put plainly: biochemical. It counts as binding. The conditions noted are these: binding inhibition assay; NB = non-binder (no dose-dependent inhibition); read-out: DRB1*1501 IC50. In outline:
(§2)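 IC50 values reflect how well each test peptide displaces a labeled high-affinity reference peptide from commercially available HLA-DRB1 allele monomers. Final test concentrations spanned 100,000 nM to 100 nM, with detection by europium-based time-resolved fluorescence after anti-HLA-DR capture.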

The target in a further assay is T2, HLA-DRB1*0101 (Homo sapiens, UniProt P01903+P01911, A100R/D57E/F55L/F60I/F76Y/I96L/L162R/M171V/P40L/Q125E/R42F/V115G/Y59C).
T2 construct: purchased
The assay is described as follows: biochemical. Type of assay: binding. The conditions noted are these: binding inhibition assay; NB = non-binder (no dose-dependent inhibition); read-out: DRB1*0101 IC50. The gist of the method:
as §2

The target of the next assay is HLA-DRB1*1301 (Homo sapiens, UniProt P01903+P01911, A100E/A169T/K41T/L162R/M171V/P40S/Q125H/Q178H/Q39Y/Q99D/R42S/S66N/T262R/W38E/Y61H). The assay is described as follows: biochemical. It counts as binding. The conditions noted are these: binding inhibition assay; NB = non-binder (no dose-dependent inhibition); read-out: DRB1*1301 IC50. The gist of the method: as §2
In another assay the target is HLA-DRB1*0701 (Homo sapiens, UniProt P01903+P01911, A100R/A102G/A103Q/D57E/D86V/E43K/F76Y/K127E/L162R/M171V/P40G/Q125H/Q99D/R33Q/R42Y/R54Q/S133A/S66F/T210M/V115G/Y107V/Y59L/Y89S). The assay is described as follows: biochemical. It counts as binding. The conditions noted are these: binding inhibition assay; NB = non-binder (no dose-dependent inhibition); read-out: DRB1*0701 IC50. In outline:
as §2

Another assay addresses HLA-DRB1*0301 (Homo sapiens, UniProt P01903+P01911, A100K/A102G/A103R/A169T/F55Y/I96L/K41T/L162R/M171V/P40S/Q125H/Q178H/Q39Y/R42S/S66N/T106N/T262R/W38E/Y61H). The assay is described as follows: biochemical. It counts as binding. The conditions noted are these: binding inhibition assay; NB = non-binder (no dose-dependent inhibition); read-out: DRB1*0303 IC50.
In the next assay the target is HLA-A*0101 (Homo sapiens, UniProt P04439, A114D/A174V/A182V/D101N/D185E/E176A/E190D/L180R/Q94H/R68K/S129P/T187R/V100A/V91M/W191G). Put plainly: biochemical. It counts as binding. The conditions noted are these: allele A*0101; fluorescence polarization competition. In outline: as §1
[1] abbreviates: cell-free competition, fluorescence polarization at 72 hours, Non-binder = no dose-dependent inhibition.

pIC50: −log10 of the molar value. Where two headings read alike, the source gives them in different places. Where a SMILES comes first, the peptide text is derived from it.

Sequence of HLA-DRB1*0301 (P01903 26-254 limits assumed, other chains not shown): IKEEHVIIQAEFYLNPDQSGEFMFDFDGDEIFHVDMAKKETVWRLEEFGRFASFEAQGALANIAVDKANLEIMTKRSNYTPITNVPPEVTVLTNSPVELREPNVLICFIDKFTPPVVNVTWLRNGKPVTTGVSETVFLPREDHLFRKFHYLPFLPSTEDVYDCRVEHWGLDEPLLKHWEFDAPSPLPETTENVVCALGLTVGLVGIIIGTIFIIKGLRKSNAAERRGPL

For orientation: IC50 means the concentration that gives 50% inhibition. Take `CC(C)C[C@H](NC(=O)[C@H](CO)NC(=O)[C@H](CS)NC(=O)[C@@H]1CCCN1C(=O)[C@H](Cc1ccccc1)NC(=O)[C@H](CC(N)=O)NC(=O)[C@H](CC(N)=O)NC(=O)[C@H](CCC(=O)O)NC(=O)[C@@H](N)C(C)C)C(=O)N[C@@H](Cc1ccc(O)cc1)C(=O)O` [AMA1_437] (H-VENNFPCSLY-OH): the IC50 came out at 6020 nM on HLA-B*4402 and 85400 nM at HLA-A*0301.

On to `CC(C)C[C@H](N)C(=O)N[C@@H](CCC(=O)O)C(=O)N[C@@H](Cc1ccccc1)C(=O)N[C@H](C(=O)N[C@@H](CS)C(=O)N[C@@H](CO)C(=O)N[C@@H](CC(N)=O)C(=O)N[C@@H](CCCNC(=N)N)C(=O)N[C@@H](CC(=O)O)C(=O)N[C@@H](Cc1ccccc1)C(=O)O)C(C)C` [CYRPA_264] (H-LEFVCSNRDF-OH), for which the IC50 on HLA-B*4402 was 7460 nM.

One may read the pIC50 as −log10 of the IC50, conventionally taken in molar units. Turning to `CC[C@H](C)[C@H](NC(=O)[C@H](CC(=O)O)NC(=O)[C@H](CCC(=O)O)NC(=O)[C@H](Cc1ccc(O)cc1)NC(C)=O)C(=O)N[C@H](C(=O)N[C@@H](CC(C)C)C(=O)N[C@@H](CCCCN)C(=O)N[C@@H](CO)C(=O)N[C@@H](Cc1c[nH]cn1)C(=O)N[C@@H](CCSC)C(=O)N[C@@H](CC(N)=O)C(=O)N[C@@H](CCCNC(=N)N)C(=O)N[C@@H](CCC(=O)O)C(=O)N[C@@H](CO)C(=O)N[C@@H](CC(=O)O)C(=O)N[C@@H](CC(=O)O)C(N)=O)C(C)C` [EBA175_015] (Ac-YEDIVLKSHMNRESDD-NH2), the pIC50 on HLA-DRB1*1501 is 4.44; on HLA-DRB1*0101, 4.70; at HLA-DRB1*1301, 5.31; on HLA-DRB1*0701, less than 4.00; on HLA-DRB1*0301, less than 4.00.

As to `CC[C@H](C)[C@H](NC(=O)[C@H](CC(N)=O)NC(=O)[C@H](CC(N)=O)NC(=O)[C@H](Cc1ccccc1)NC(=O)[C@H](CC(N)=O)NC(=O)[C@H](CC(N)=O)NC(=O)[C@H](CC(N)=O)NC(=O)[C@H](CC(N)=O)NC(=O)[C@H](CO)NC(=O)[C@H](CCCNC(=N)N)NC(C)=O)C(=O)N1CCC[C@H]1C(=O)N[C@@H](CO)C(=O)N[C@@H](CCCNC(=N)N)C(=O)N[C@@H](Cc1ccc(O)cc1)C(=O)N[C@@H](CC(N)=O)C(=O)N[C@@H](CC(C)C)C(=O)N[C@@H](Cc1ccc(O)cc1)C(=O)N[C@@H](CC(=O)O)C(N)=O` [EBA175_017B] (Ac-RSNNNNFNNIPSRYNLYD-NH2), the pIC50 on HLA-DRB1*1501 was 4.63; at HLA-DRB1*0101 it was 6.37; at HLA-DRB1*1301 it was less than 4.00; at HLA-DRB1*0301, less than 4.00.

As for `CC[C@H](C)[C@H](NC(=O)[C@H](Cc1c[nH]c2ccccc12)NC(=O)[C@H](CCC(N)=O)NC(=O)[C@@H](NC(=O)[C@@H](NC(=O)[C@H](CCC(N)=O)NC(=O)[C@H](CC(C)C)NC(=O)[C@H](CCC(=O)O)NC(=O)[C@@H](N)CCC(=O)O)[C@@H](C)CC)[C@@H](C)O)C(=O)O` [EBA175_0316] (H-EELQITQWI-OH), at HLA-B*4402 (setting [1]), the pIC50 is 4.71.

Regarding `CC(C)C[C@H](NC(=O)[C@@H](NC(=O)[C@H](Cc1c[nH]cn1)NC(=O)[C@H](Cc1c[nH]c2ccccc12)NC(=O)[C@H](CCC(=O)O)NC(=O)[C@@H](N)Cc1ccccc1)[C@@H](C)O)C(=O)N[C@@H](CO)C(=O)N[C@@H](CCCCN)C(=O)N[C@@H](CCC(=O)O)C(=O)N[C@@H](Cc1ccc(O)cc1)C(=O)O` [EBA175_0375] (H-FEWHTLSKEY-OH), the pIC50 at HLA-B*4402 (setting [1]) was 4.72.

Turning to `CC[C@H](C)[C@H](NC(=O)[C@H](CC(=O)O)NC(=O)[C@@H](NC(=O)[C@H](Cc1c[nH]cn1)NC(=O)[C@H](CO)NC(=O)[C@H](CC(C)C)NC(=O)[C@H](CCCNC(=N)N)NC(=O)[C@H](CCC(=O)O)NC(=O)[C@H](CCC(=O)O)NC(=O)[C@@H](N)CCC(=O)O)[C@@H](C)O)C(=O)O` [EBA175_1211] (H-EEERLSHTDI-OH), the pIC50 on HLA-B*4402 (setting [1]) was 4.72.

For the molecule `CC[C@H](C)[C@H](NC(=O)[C@H](CCCNC(=N)N)NC(=O)[C@H](CC(N)=O)NC(=O)[C@H](Cc1ccccc1)NC(=O)[C@@H](NC(=O)[C@H](Cc1c[nH]cn1)NC(=O)[C@H](CCCCN)NC(=O)[C@H](CCSC)NC(=O)[C@H](CCC(=O)O)NC(=O)[C@@H](N)CCCCN)[C@@H](C)CC)C(=O)O` [RH5_415] (H-KEMKHIFNRI-OH), on HLA-B*4402, the IC50 was found to be 39200 nM.

As for `CC[C@H](C)[C@H](NC(=O)[C@H](CCC(=O)O)NC(=O)[C@@H](N)CC(N)=O)C(=O)N[C@@H](CC(=O)O)C(=O)N[C@@H](CCCCN)C(=O)N[C@@H](CC(C)C)C(=O)N[C@H](C(=O)N[C@@H](Cc1ccccc1)C(=O)N[C@@H](CO)C(=O)N[C@@H](CC(C)C)C(=O)O)[C@@H](C)O` [RIPR_0031] (H-NEIDKLTFSL-OH), at HLA-B*4402, the IC50 was 332000 nM.

Take `CC(C)C[C@H](NC(=O)[C@H](Cc1ccc(O)cc1)NC(=O)[C@H](Cc1c[nH]cn1)NC(=O)[C@@H](NC(=O)[C@H](CC(C)C)NC(=O)[C@H](CO)NC(=O)[C@H](CCCCN)NC(=O)[C@H](CC(N)=O)NC(=O)[C@H](CCC(=O)O)NC(=O)[C@@H](N)Cc1ccc(O)cc1)[C@@H](C)O)C(=O)O` [RIPR_0226] (H-YENKSLTHYL-OH): the IC50 on HLA-B*4402 came out at 112000 nM.

As for `CC[C@H](C)[C@H](NC(=O)[C@H](CC(=O)O)NC(=O)[C@H](CCC(N)=O)NC(=O)[C@@H](NC(=O)[C@H](CS)NC(=O)[C@H](CCCNC(=N)N)NC(=O)[C@H](Cc1ccc(O)cc1)NC(=O)[C@H](CC(N)=O)NC(=O)[C@H](CCC(=O)O)NC(=O)[C@@H](N)CCC(=O)O)[C@@H](C)O)C(=O)O` [RIPR_0283] (H-EENYRCTQDI-OH), on HLA-B*4402, the half-maximal inhibitory concentration (IC50) is 674000 nM.

Take `CC(C)C[C@H](NC(=O)[C@H](CC(N)=O)NC(=O)[C@H](CC(N)=O)NC(=O)[C@H](CCCCN)NC(=O)[C@H](Cc1ccc(O)cc1)NC(=O)[C@H](Cc1ccccc1)NC(=O)[C@H](CCCCN)NC(=O)[C@H](CCC(=O)O)NC(=O)[C@@H](N)CCCCN)C(=O)N[C@@H](Cc1ccc(O)cc1)C(=O)O` [RIPR_0378] (H-KEKFYKNNLY-OH): the half-inhibitory concentration (IC50) at HLA-B*4402 worked out at 919000 nM.

For the molecule DEYIHKLIL [RH5_361], the “IC50 (nM), in vitro HLA binding affinity” value at HLA-B*4402 is “Non-binder”.

As for EEKDDIKNG [RH5_049], the “IC50 (nM), in vitro HLA binding affinity” value at HLA-B*4402 was “Non-binder”.

Consider KDLSDMTNI [RH5_378], for which the “IC50 (nM), in vitro HLA binding affinity” value at HLA-B*4402 is given as “Non-binder”.

Consider KEIDNDKENI [RH5_062], for which the “IC50 (nM), in vitro HLA binding affinity” value at HLA-B*4402 is reported as “Non-binder”.

Turning to KEKHLNNIF [RH5_486], the “IC50 (nM), in vitro HLA binding affinity” value on HLA-B*4402 is “Non-binder”.

Take NDVPIKMEYF [RH5_506]: the “IC50 (nM), in vitro HLA binding affinity” value on HLA-B*4402 is listed as “Non-binder”.

As to NEKNDVKNN [RH5_123], at HLA-B*4402, the “IC50 (nM), in vitro HLA binding affinity” value was “Non-binder”.

Consider NENNENNFL [EBA175_1454], for which the “IC50 (nM)” value at HLA-B*4402 (setting [1]) is “Non-binder”.

In the case of NEYSLFITS [RH5_464], at HLA-B*4402, the “IC50 (nM), in vitro HLA binding affinity” value was “Non-binder”.

For the molecule SECDIGLIY [RIPR_0611], the “IC50 (nM), in vitro HLA binding affinity” value at HLA-B*4402 and at HLA-A*0101 was “Non-binder” each time.
